Measured values as given in US20170304260A1, “ALTRENOGEST FORMULATION AND USES THEREOF FOR ESTRUS SYNCHRONISATION IN ANIMALS” (priority 2014, published 2017).

Experiment: Storage stability of microcapsule emulsion / powder (Method 1, spray-drying)
Assay type: physicochemical
Settings: liquid and dry form of the microcapsule emulsion, ambient temperature
Description: Method 1: Dry Microcapsule Obtained by Atomisation (Spray-Drying)
The emulsion comprising the ingredients above was pre-homogenized with a Polytron™ homogenizer for 3 min at 9000 rpm, then homogenized with a two-stage Avestin™ homogenizer (3*5000 psi+1*500 psi).
Spray drying was performed under the following conditions: spray dryer BUCHI® Mini Spray Drier B-191 with a 2 mm nozzle diameter, air pressure of 60 psi. The emulsion was fed into the main chamber through peristatic pump, feed flow rate was 400 ml/h, inlet air temperature was 160° C. and outlet temperature was 65° C. The dried microcapsules were collected in a cyclone.
Particle size distribution of the final emulsion was less than 1 micron and the powder obtained by atomisation or freeze drying had good rehydration properties, low surface oil and low oxidation during the powder storage. Furthermore, the emulsion in liquid form containing 1.5% sodium caseinate and 15% sunflower oil was physically stable when pasteurized with no preservation agents added to it. Maltodextrin was used as a “wall material” to permit further drying of the emulsion. Additionally, the retention of Altrenogest was well preserved in both the liquid and dry form for a period of at least 5 months at ambient temperature.

## C=CC[C@]1(O)CC[C@H]2[C@@H]3CCC4=CC(=O)CCC4=C3C=C[C@@]21C [Altrenogest]
  period over which retention of Altrenogest was well preserved: at least 5 months
